Measurements from patent US7582803B2 (Amgen Inc., priority 2005, dated 2009).
pEC50: −log10 of the molar value.

Biological target: T1, human GPR40 (Homo sapiens, UniProt O14842)
T1 construct: expressed in transfected cells; host or cells: CHO cells
Test: Cell-based aequorin assay
Settings: CHO cells stably transfected with GPR40 and aequorin; 0.01% HSA; aequorin luminescence; read-out: Relative EC50
Description: Cell-based aequorin assays were employed to characterize the modulatory activity of compounds on the GPR40 signaling pathway. In an exemplary assay, CHO cells were stably transfected with both GPR40 and Aequorin (Euroscreen). Cells were detached from the tissue culture dish with 2 mL of trypsin (0.25% (w/v)). Trypsinization was halted with 28 mL of Hanks Buffered Salt Solution containing 20 mM Hepes (H/HBSS) and 0.01% fatty acid-free human serum albumin (HSA). Coelantrazine is added to 1 ug/mL, and the cells were incubated for 2 hours at room temperature. Compounds were dissolved in DMSO for preparation of 10 mM stock solutions. Compounds were diluted in H/HBSS containing 0.01% HSA. Serial dilutions of the test compounds were prepared to determine dose response.
Aequorin luminescence measurements were made using an EG&G Berthold 96-well luminometer, and the response was measured over a 20 second interval after cells and compounds were mixed. The maximum relative light units was plotted to determine dose response. The EC50 (effective concentration to reach 50% maximal response) was determined from the dose response plot.
Table 1 presents representative data (EC50 values) obtained for exemplary compounds of the invention for the relative activation of human GPR40. […]

T1 sequence (O14842 whole entry): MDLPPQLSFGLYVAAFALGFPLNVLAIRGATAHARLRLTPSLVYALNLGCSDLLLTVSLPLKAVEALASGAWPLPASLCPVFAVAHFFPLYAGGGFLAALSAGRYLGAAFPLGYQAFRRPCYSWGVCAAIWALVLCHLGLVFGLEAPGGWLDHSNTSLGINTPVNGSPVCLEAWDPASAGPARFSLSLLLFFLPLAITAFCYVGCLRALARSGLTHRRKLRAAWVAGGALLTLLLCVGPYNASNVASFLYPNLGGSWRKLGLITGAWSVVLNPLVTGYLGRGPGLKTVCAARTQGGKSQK

`CC#C[C@@H](CC(=O)O)c1ccc(OC2c3ccccc3CC2C)cc1` (mixture of isomers) [Example 21, (3S)-3-[4-(2-Methyl-indan-1-yloxy)-phenyl]-hex-4-ynoic acid] and `CC#C[C@@H](CC(=O)O)c1ccc(OC2Cc3ccccc3C2)cc1` [Example 27, (3S)-3-[4-(Indan-2-yloxy)-phenyl]-hex-4-ynoic acid] fall in the same range of pEC50: 7.00 to 8.00 for the first, 7.00 to 8.00 for the second.

`Cc1ccc(C(CC(=O)O)c2ccc(OC3CCc4cc(Cl)ccc43)cc2)s1` (racemic) [Example 23, (+/−)-3-(4-(5-Chloro-2,3-dihydro-1H-inden-1-yloxy)phenyl)-3-(5-methylthiophen-2-yl)propanoic acid] and `Cc1cnc(C(CC(=O)O)c2ccc(OC3CCc4cc(Cl)ccc43)cc2)o1` (racemic) [Example 34, (+/−)-3-(4-(5-Chloro-2,3-dihydro-1H-inden-1-yloxy)phenyl)-3-(5-methyloxazol-2-yl)propanoic acid] fall in the same range of pEC50: 5.00 to 6.00 for the first, 5.00 to 6.00 for the second.

Compared with `O=C(O)CC(c1ccc(OC2CCC(c3ccccc3)CC2)cc1)c1cccs1` (racemic) [Example 31, (+/−)-3-(4-(4-Phenylcyclohexyloxy)phenyl)-3-(thiophen-2-yl)propanoic acid], `CC#CC(CC(=O)O)c1ccc(OC2CCC(c3ccccc3)CC2)cc1` [Example 29, (R,S)-3-(4-(4-phenylcyclohexyloxy)phenyl)hex-4-ynoic acid] is higher in pEC50: 5.00 to 6.00 for the first, 6.00 to 7.00 for the second. The second is the more potent here.

First: O=C(O)CC(c1ccc(OC2Cc3ccccc3C2)cc1)c1ncco1 (racemic) [Example 32, (+/−)-3-(4-(2,3-Dihydro-1H-inden-2-yloxy)phenyl)3-(oxazol-2-yl)propanoic acid]
Second: O=C(O)CC(c1ccc(OC2Cc3ccccc3C2)cc1)c1cccs1 (racemic) [Example 48, (+/−)-3-(4-(2,3-Dihydro-1H-inden-2-yloxy)phenyl)-3-(thiophen-2-yl)propanoic acid]
The pEC50 of the first is lower: 5.00 to 6.00 for the first, 6.00 to 7.00 for the second. The second is the more potent here.

First: O=C(O)CC(c1ccc(OC2CCc3cc(Cl)ccc32)cc1)c1ncco1 (racemic) [Example 33, (+/−)-3-(4-(5-Chloro-2,3-dihydro-1H-inden-1-yloxy)phenyl)-3-(oxazol-2-yl)propanoic acid]
Second: CC#C[C@@H](CC(=O)O)c1ccc(OC2CCc3cc(Cl)ccc32)cc1 (stereo partly drawn) [Example 15, (3S)-3-[4-(5-Chloro-indan-1-yloxy)-phenyl]-hex-4-ynoic acid]
The pEC50 of the first is lower: 5.00 to 6.00 for the first, over 8.00 for the second.

`O=C(O)CC(c1ccc(OC2Cc3ccccc3C2)cc1)c1cc(F)cc(F)c1` (racemic) [Example 36, (+/−)3-(3,5-Difluorophenyl)-3-(4-(2,3-dihydro-1H-inden-2-yloxy)phenyl)propanoic acid] and `O=C(O)CC(c1ccc(OC2Cc3ccccc3C2)cc1)c1cc(F)ccc1F` (racemic) [Example 37, (+/−)3-(2,5-Difluorophenyl)-3-(4-(2,3-dihydro-1H-inden-2-yloxy)phenyl)propanoic acid] fall in the same range of pEC50: 6.00 to 7.00 for the first, 6.00 to 7.00 for the second.

First: O=C(O)CC(c1ccc(OC2Cc3ccccc3C2)cc1)c1ccc(F)cc1F (racemic) [Example 38, (+/−)3-(2,4-Difluorophenyl)-3-(4-(2,3-dihydro-1H-inden-2-yloxy)phenyl)propanoic acid]
Second: O=C(O)CC(c1ccc(OC2Cc3ccccc3C2)cc1)c1c(F)cccc1F (racemic) [Example 39, (+/−)3-(2,6-Difluorophenyl)-3-(4-(2,3-dihydro-1H-inden-2-yloxy)phenyl)propanoic acid]
The pEC50 of the first is higher: 6.00 to 7.00 for the first, 5.00 to 6.00 for the second.

`O=C(O)CC(c1ccccc1)c1ccc(OC2CCc3cc(Br)ccc32)cc1` (racemic) [Example 41, (+/−)-3-[4-(5-Bromo-indan-1-yloxy)-phenyl]-3-phenyl-propionic acid] and `O=C(O)CC(c1ccc(F)cc1)c1ccc(OC2CCc3cc(Br)ccc32)cc1` (racemic) [Example 42, (+/−)-3-[4-(5-Bromo-indan-1-yloxy)-phenyl]-3-(4-fluoro-phenyl)-propionic acid] fall in the same range of pEC50: 6.00 to 7.00 for the first, 6.00 to 7.00 for the second.

First: O=C(O)CC(c1ccc(OC2CCCCc3ccccc32)cc1)c1cccs1 (racemic) [Example 49, (+/−)3-(4-(6,7,8,9-Tetrahydro-5H-benzo[7]annulen-5-yloxy)phenyl)-3-(thiophen-2-yl)propanoic acid]
Second: CC#C[C@@H](CC(=O)O)c1ccc(OC2CCCc3ccccc32)cc1 (stereo partly drawn) [Example 24, (3S)-3-[4-(1,2,3,4-Tetrahydro-naphthalen-1-yloxy)-phenyl]-hex-4-ynoic acid]
The pEC50 of the first is lower: 5.00 to 6.00 for the first, 7.00 to 8.00 for the second. The second is the more potent here.

`O=C(O)CC1CCCc2cc(OC3Cc4ccccc4C3)ccc21` (racemic) [Example 53, (R/S)-2-(6-(2,3-Dihydro-1H-inden-2-yloxy)-1,2,3,4-tetrahydronaphthalen-1-yl)acetic acid] and `CC#C[C@@H](CC(=O)O)c1ccc(OC2CCc3ccccc3C2)cc1` (stereo partly drawn) [Example 26, (3S)-3-[4-(1,2,3,4-Tetrahydro-naphthalen-2-yloxy)-phenyl]-hex-4-ynoic acid] fall in the same range of pEC50: 6.00 to 7.00 for the first, 6.00 to 7.00 for the second.

First: CC1(C)CCC(C)(C)c2cc(COc3ccc(C(CC(=O)O)c4cncnc4)cc3)ccc21 (racemic) [Example 79, (R/S)-3-Pyrimidin-5-yl-3-[4-(5,5,8,8-tetramethyl-5,6,7,8-tetrahydro-naphthalen-2-ylmethoxy)-phenyl]-propionic acid]
Second: CC#C[C@@H](CC(=O)O)c1ccc(OC2CCc3ccc(OC)cc32)cc1 (stereo partly drawn) [Example 17, (3S)-3-[4-(6-Methoxy-indan-1-yloxy)-phenyl]-hex-4-ynoic acid]
The pEC50 of the first is lower: 5.00 to 6.00 for the first, 7.00 to 8.00 for the second. The second is the more potent here.

`CC#C[C@@H](CC(=O)O)c1ccc(O[C@@H]2CCc3cc(Br)ccc32)cc1` (single isomer, unassigned) [Example 44] and `CC#C[C@@H](CC(=O)O)c1ccc(OC2CCc3cc(Br)ccc32)cc1` (stereo partly drawn) [Example 2, (3S)-3-[4-(5-Bromo-indan-1-yloxy)-phenyl]-hex-4-ynoic acid] fall in the same range of pEC50: 7.00 to 8.00 for the first, 7.00 to 8.00 for the second.

`CC#C[C@@H](CC(=O)O)c1ccc(OC2CCc3cc(-c4ccc(C(F)(F)F)cc4)ccc32)cc1` (stereo partly shown) [Example 1] and `CC#C[C@@H](CC(=O)O)c1ccc(OC2CCc3ccc(-c4ccc(C(F)(F)F)cc4)cc32)cc1` (stereo partly drawn) [Example 11, (3S)-3-(4-(6-(4-(trifluoromethyl)phenyl)-2,3-dihydro-1H-inden-1-yloxy)phenyl)hex-4-ynoic acid] fall in the same range of pEC50: 7.00 to 8.00 for the first, 7.00 to 8.00 for the second.

`CC#C[C@@H](CC(=O)O)c1ccc(OC2CCc3cc(-c4cc(C)ccc4OCCCC)ccc32)cc1` (stereo partly drawn) [Example 3, (3S)-3-(4-(5-(2-Butoxy-5-methylphenyl)-2,3-dihydro-1H-inden-1-yloxy)phenyl)hex-4-ynoic acid] and `CC#C[C@@H](CC(=O)O)c1ccc(OC2CCc3ccc(-c4cc(C)ccc4OCCCC)cc32)cc1` (stereo partly drawn) [Example 12, (3S)-3-{4-[6-(2-Butoxy-5-methyl-phenyl)-indan-1-yloxy]-phenyl}-hex-4-ynoic acid] fall in the same range of pEC50: 7.00 to 8.00 for the first, 7.00 to 8.00 for the second.

`CC#C[C@@H](CC(=O)O)c1ccc(OC2CCc3c(Br)cccc32)cc1` (stereo partly drawn) [Example 5, (3S)-3-[4-(4-Bromo-indan-1-yloxy)-phenyl]-hex-4-ynoic acid] and `CC#C[C@@H](CC(=O)O)c1ccc(OC2CCCc3c(Br)cccc32)cc1` (stereo partly drawn) [Example 25, (3S)-3-[4-(5-Bromo-1,2,3,4-tetrahydro-naphthalen-1-yloxy)-phenyl]-hex-4-ynoic acid] fall in the same range of pEC50: 7.00 to 8.00 for the first, 7.00 to 8.00 for the second.

`CC#C[C@@H](CC(=O)O)c1ccc(OC2CCc3c(-c4ccc(OC(F)(F)F)cc4)cccc32)cc1` (stereo partly drawn) [Example 6, (3S)-3-{4-[4-(4-Trifluoromethoxy-phenyl)-indan-1-yloxy]-phenyl}-hex-4-ynoic acid] and `CC#C[C@@H](CC(=O)O)c1ccc(OC2CCc3c(-c4ccc(C(F)(F)F)cc4)cccc32)cc1` (stereo partly shown) [Example 7] fall in the same range of pEC50: 7.00 to 8.00 for the first, 7.00 to 8.00 for the second.

`CC#C[C@@H](CC(=O)O)c1ccc(OC2CCc3c(-c4cc(C)ccc4OCCCC)cccc32)cc1` (stereo partly drawn) [Example 8, (3S)-3-{4-[4-(2-Butoxy-5-methyl-phenyl)-indan-1-yloxy]-phenyl}-hex-4-ynoic acid] and `CC#C[C@@H](CC(=O)O)c1ccc(OC2CCc3c(C)cccc32)cc1` (stereo partly drawn) [Example 16, (3S) 3-[4-(4-Methyl-indan-1-yloxy)-phenyl]-hex-4-ynoic acid] fall in the same range of pEC50: 7.00 to 8.00 for the first, 7.00 to 8.00 for the second.

`CC#C[C@@H](CC(=O)O)c1ccc(OC2CCc3cc(F)ccc32)cc1` (stereo partly drawn) [Example 14, (3S)-3-(4-(5-Fluoro-2,3-dihydro-1H-inden-1-yloxy)phenyl)hex-4-ynoic acid] and `CC#C[C@@H](CC(=O)O)c1ccc(O[C@H]2CCc3cc(Br)ccc32)cc1` [Example 45, (S)-3-(4-((S)-5-bromo-2,3-dihydro-1H-inden-1-yloxy)phenyl)hex-4-ynoic acid] fall in the same range of pEC50: 7.00 to 8.00 for the first, 7.00 to 8.00 for the second.

`CC#C[C@@H](CC(=O)O)c1ccc(OC2CCc3cc(OC)ccc32)cc1` (stereo partly drawn) [Example 18, (3S)-3-[4-(5-Methoxy-indan-1-yloxy)-phenyl]-hex-4-ynoic acid] and `CC#C[C@@H](CC(=O)O)c1ccc(OC2CCc3ccccc32)cc1` (stereo partly drawn) [Example 46, (3S)-3-(4-(2,3-Dihydro-1H-inden-1-yloxy)phenyl)hex-4-ynoic acid] fall in the same range of pEC50: 7.00 to 8.00 for the first, 7.00 to 8.00 for the second.

First: CC#C[C@@H](CC(=O)O)c1ccc(OC2CCc3c2ccc(OC)c3OC)cc1 (stereo partly drawn) [Example 19, (3S)-3-[4-(4,5-Dimethoxy-indan-1-yloxy)-phenyl]-hex-4-ynoic acid]
Second: CC#C[C@@H](CC(=O)O)c1ccc(OC2CCc3c(OC)ccc(OC)c32)cc1 (stereo partly drawn) [Example 20, (3S)-3-[4-(4,7-Dimethoxy-indan-1-yloxy)-phenyl]-hex-4-ynoic acid]
The pEC50 of the first is lower: 5.00 to 6.00 for the first, 6.00 to 7.00 for the second.
